Data published in paper PMC2990104 (Advances in Pharmacological Sciences, 2010).

Key:
Format in all cases: cell-based
[1] = biological target: T1, L-type calcium channel (LTCC) (Rattus norvegicus, UniProt P22002); test: whole-cell patch clamp of basal and BAY-stimulated ICa,L in A7r5 cells
T1 construct: gene Cacna1c; native channel in A7r5 cells

[2] = biological target: T1, L-type calcium channel (LTCC); test: whole-cell patch clamp of ICa,L in A7r5 cells (stimulation); conditions: read-out: % stimulation above basal at 10 nM
[3] = biological target: T1, L-type calcium channel (LTCC); test: whole-cell patch clamp of ICa,L in A7r5 cells; conditions: read-out: % of basal current at 1 μM

T1 sequence (P22002 whole entry): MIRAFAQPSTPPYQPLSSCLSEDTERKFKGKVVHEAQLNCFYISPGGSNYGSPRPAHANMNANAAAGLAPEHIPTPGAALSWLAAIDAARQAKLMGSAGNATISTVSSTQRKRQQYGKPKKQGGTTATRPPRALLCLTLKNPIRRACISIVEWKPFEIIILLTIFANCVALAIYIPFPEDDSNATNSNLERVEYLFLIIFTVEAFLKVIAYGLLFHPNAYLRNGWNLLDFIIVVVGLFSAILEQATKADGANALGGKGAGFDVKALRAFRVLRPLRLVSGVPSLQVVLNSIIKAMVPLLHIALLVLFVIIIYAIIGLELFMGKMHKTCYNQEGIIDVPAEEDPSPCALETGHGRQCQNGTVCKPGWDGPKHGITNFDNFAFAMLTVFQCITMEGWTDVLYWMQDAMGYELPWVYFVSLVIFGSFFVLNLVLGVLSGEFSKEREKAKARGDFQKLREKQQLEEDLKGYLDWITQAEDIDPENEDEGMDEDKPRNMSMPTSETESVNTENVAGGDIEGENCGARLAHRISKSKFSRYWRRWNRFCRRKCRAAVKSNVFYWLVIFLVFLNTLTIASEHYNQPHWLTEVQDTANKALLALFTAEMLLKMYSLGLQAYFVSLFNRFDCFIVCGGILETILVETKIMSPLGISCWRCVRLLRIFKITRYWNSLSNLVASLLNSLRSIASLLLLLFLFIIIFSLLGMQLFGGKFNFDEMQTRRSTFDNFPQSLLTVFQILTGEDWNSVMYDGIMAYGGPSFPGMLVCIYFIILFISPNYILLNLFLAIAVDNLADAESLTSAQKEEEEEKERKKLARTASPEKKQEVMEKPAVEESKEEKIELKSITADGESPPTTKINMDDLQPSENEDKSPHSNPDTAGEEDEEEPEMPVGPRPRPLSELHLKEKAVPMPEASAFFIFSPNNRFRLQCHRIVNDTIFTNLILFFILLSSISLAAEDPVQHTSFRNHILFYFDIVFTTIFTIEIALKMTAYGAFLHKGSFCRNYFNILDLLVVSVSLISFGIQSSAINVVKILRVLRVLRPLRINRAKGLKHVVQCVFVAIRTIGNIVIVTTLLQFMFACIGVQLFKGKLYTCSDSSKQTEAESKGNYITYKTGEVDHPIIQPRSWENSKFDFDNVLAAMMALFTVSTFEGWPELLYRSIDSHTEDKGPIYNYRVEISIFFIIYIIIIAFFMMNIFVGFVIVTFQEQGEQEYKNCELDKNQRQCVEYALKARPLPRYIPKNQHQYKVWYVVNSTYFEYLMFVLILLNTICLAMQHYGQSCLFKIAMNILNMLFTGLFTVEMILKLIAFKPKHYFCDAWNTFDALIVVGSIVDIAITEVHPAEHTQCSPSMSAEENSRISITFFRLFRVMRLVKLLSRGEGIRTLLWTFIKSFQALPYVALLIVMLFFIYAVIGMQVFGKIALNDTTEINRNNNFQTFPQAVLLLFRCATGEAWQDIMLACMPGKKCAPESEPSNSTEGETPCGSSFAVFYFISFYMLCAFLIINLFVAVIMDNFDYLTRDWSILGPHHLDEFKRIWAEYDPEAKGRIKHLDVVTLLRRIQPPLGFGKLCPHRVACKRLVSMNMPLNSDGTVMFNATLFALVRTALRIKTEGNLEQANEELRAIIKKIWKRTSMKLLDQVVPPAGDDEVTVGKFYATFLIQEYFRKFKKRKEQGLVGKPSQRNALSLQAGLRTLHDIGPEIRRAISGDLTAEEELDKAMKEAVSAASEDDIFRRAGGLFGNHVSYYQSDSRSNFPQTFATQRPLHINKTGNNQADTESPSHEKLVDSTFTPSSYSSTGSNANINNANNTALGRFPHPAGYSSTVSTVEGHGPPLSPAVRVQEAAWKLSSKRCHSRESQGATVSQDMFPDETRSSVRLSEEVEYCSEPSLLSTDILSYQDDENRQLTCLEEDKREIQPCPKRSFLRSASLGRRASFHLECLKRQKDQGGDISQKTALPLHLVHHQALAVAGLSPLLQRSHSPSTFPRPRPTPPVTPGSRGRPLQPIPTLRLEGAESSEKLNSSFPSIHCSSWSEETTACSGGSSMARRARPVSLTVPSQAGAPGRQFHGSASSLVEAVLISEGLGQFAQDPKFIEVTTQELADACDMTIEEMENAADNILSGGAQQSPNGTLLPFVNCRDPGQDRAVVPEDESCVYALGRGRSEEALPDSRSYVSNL

**Q.** `CC(C)CCC[C@@H](C)[C@H]1CC[C@H]2[C@@H]3CC=C4C[C@@H](O)CC[C@]4(C)[C@H]3CC[C@]12C` [cholesterol] was tested. Which inhibition at 100 µM [1] did it give?
**A.** 73.9 ± 16.8%

**Q.** For `COC(=O)C1=C(C)NC(C)=C([N+](=O)[O-])[C@H]1c1ccccc1C(F)(F)F` [BAY, (−)-Bay K8644], which activation at 0.01 µM [2] is on record?
**A.** 74.8 ± 5.7%

**Q.** How did the activity at 1 µM [3] turn out when `COC(=O)C1=C(C)NC(C)=C(C(=O)OC)C1c1ccccc1[N+](=O)[O-]` [NIF, nifedipine] was run?
**A.** 20.6 ± 2.2%
